Five molecules from US7566530B2 (priority 2004, dated 2009) can be followed below.

Where two headings read alike, the source gives them in different places.

One assay has as its system PrP^res. The class given is biochemical, human.
In the next assay the test system is PrP^sc. It counts as biochemical, bovine. The following applies: for location of PrP^sc bands (starting supernatant or pellet) after centrifugation: 2.5, 5, 10 mg added to 50 μl PrP^sc sample, 37° C. 1 h; for location of PrP^sc bands (starting supernatant or pellet) after centrifugation / crosslinking and precipitation of PrP: FIG. 4; for crosslinking and precipitation of PrP: simple centrifuge, no ultracentrifugation.

Regarding heparin, the “sensitivity and specificity of detection of PrP^res of lymphoid origin in blood samples” value in the assay with PrP^res is “confirms the sensitivity and the specificity of detection of PrP^res”. In the case of `NCCCNCCCN` [bis-3-aminopropylamine], the “apparent molecular mass of the prion protein bands compared to a control without molecule” value with PrP^sc (130-1040 μg added to 5 μl PrP^sc, 30 min room temperature, pellet supernatant, FIG. 6) was “induces an increase in the apparent molecular mass of the 3 prion protein bands”. In addition, in the assay with PrP^sc (130-1040 μg, 12 000 rpm 5 min, FIG. 6), the “precipitation of the prion protein on centrifugation” value was “the prion protein precipitates”. In the case of `[H]/N=C(/N)N[C@H]1[C@H](O)[C@@H](O)[C@H](O[C@@H]2O[C@@H](C)[C@](O)(C=O)[C@H]2O[C@@H]2O[C@@H](CO)[C@H](O)[C@@H](O)[C@@H]2NC)[C@@H](N/C(N)=N\[H])[C@@H]1O` [streptomycin], the “location of PrP^sc bands (starting supernatant or pellet) after centrifugation” value in the assay on PrP^sc (12 000 rpm 5 min) is reported as “the PrP^sc material is found in the pellet”. Further, the “crosslinking and precipitation of PrP” value in the assay with PrP^sc is given as “induces crosslinking of PrP which allows complete precipitation thereof”.

With `CN[C@@H]1[C@H](O[C@H]2[C@H](O[C@H]3[C@H](O)[C@@H](O)[C@H](NC(=N)N)[C@@H](O)[C@@H]3NC(=N)N)O[C@@H](C)[C@]2(O)CO)O[C@@H](CO)[C@H](O)[C@H]1O` [dihydrostreptomycin sesquisulfate], in the assay on PrP^sc (12 000 rpm 5 min), the “location of PrP^sc bands (starting supernatant or pellet) after centrifugation” value is given as “the PrP^sc material is found in the pellet”. In addition, the “crosslinking and precipitation of PrP” value in the assay with PrP^sc was “induces crosslinking of PrP which allows complete precipitation thereof”.

Turning to `NCCNCCNCCN` [triethylenetetramine], in the assay on PrP^sc (105-840 μg TET added to 5 μl PrP^sc (250 μg brain), supernatant, FIG. 5), the “apparent molecular mass of the prion protein bands compared to a control without molecule” value is listed as “induces an increase in the apparent molecular mass of the prion protein”. Besides, the “crosslinking of PrP versus dose” value in the assay on PrP^sc (105-840 μg TET, FIG. 5) is given as “a crosslinking of PrP proportional to the dose of TET”.
